Test results from ChEMBL document CHEMBL6071172, “Addressing the Intracellular Vestibule of the Plasmodial Lactate Transporter PfFNT by p-Substituted Inhibitors Amplifies In Vitro Activity” (J Med Chem, 2024).
One block for each molecule: values may come before it. Active and inactive are the calls of the source. No cut-off for these calls is given here.

What was measured:
HEK293 [1] = assay: Cytotoxicity against HEK293 cells assessed as reduction in nuclei count at >10 uM by Hoechst 33342 staining based microscopic analysis; assay type: toxicity, cell-based; settings: human, hek293, 10 µM
Plasmodium falciparum [2] = assay: Antiplasmodial activity against Plasmodium falciparum 3D7 infected in SCID mouse model assessed as decrease in parasite load at 150 mg/kg/day, po administered for 4 days; assay type: functional, organism-based; settings: time 4.0 day
HepG2 [3] = assay: Cytotoxicity against human HepG2 cells assessed as change in ATP level upto 100 uM by CellTiter-Glo assay; assay type: toxicity, cell-based; settings: hepg2, 100 µM
[4] = Half-life in SCID mouse model infected with plasmodium falciparum 3D7 at 50 mg/kg/day, po administered for 4 days; assay type: ADME, organism-based; settings: in vivo, time 4 day
[5] = Drug concentration in blood of SCID mouse model infected with plasmodium falciparum 3D7 at 50 mg/kg/day, po administered for 4 days; assay type: ADME, organism-based; settings: time 4 day, read-out: Ct
HEK293 [6] = assay: Cytotoxicity against HEK293 cells assessed as change in redox capability of cytosol upto 100 uM by resazurin dye based fluorescence microplate reader; assay type: toxicity, cell-based; settings: human
HepG2 [7] = assay: Cytotoxicity against human HepG2 cells assessed as change in redox capability of cytosol upto 100 uM by CellTiter-Glo assay; assay type: toxicity, cell-based
HEK293 [8] = assay: Cytotoxicity against HEK293 cells assessed as change in ATP level upto 100 uM by CellTiter-Glo assay; assay type: toxicity, cell-based; settings: human, hek293, 100 µM
[9] = Metabolic stability in pooled human liver microsomes assessed as intrinsic clearance at 1 uM by LC-MS/MS analysis; assay type: ADME, Microsome; settings: read-out: CLH
HepG2 [10] = assay: Cytotoxicity against human HepG2 cells assessed as reduction in nuclei count at >10 uM by Hoechst 33342 staining based microscopic analysis; assay type: toxicity, cell-based; settings: hepg2, 10 µM
[11] = Dissociation constant, pKa of compound; assay type: physicochemical
Plasmodium berghei = assay: Antiplasmodial activity against Plasmodium berghei ANKA infected in malarial mouse model assessed as elimination of parasitemia at 3 to 30 mg/kg/day, po administered for 4 days by flow cytometric analysis relative to control; assay type: functional; settings: dose 3-30 mg/kg/day, time 4 day
Plasmodium falciparum [12] = assay: Antiplasmodial activity against Plasmodium falciparum 3D7 infected in erythrocytes incubated for 48 hrs with media replenishment with compound after 24 hrs by LSR II FACS analysis; assay type: functional, organism-based; settings: 3D7, Erythrocyte
Plasmodium falciparum [13] = assay: Antiplasmodial activity against Plasmodium falciparum 3D7 infected in erythrocytes assessed as inhibition of parasite growth at 50 nM incubated for 48 hrs with media replenishment with compound after 24 hrs by LSR II FACS analysis relative to control; assay type: functional; settings: 3D7, Erythrocyte
[14] = Binding affinity to C-terminal GFP tagged Plasmodium falciparum FNT extracted from HEK293 cell membrane assessed as inhibition constant measured 10 times for 5 sec in presence of BH267.meta-DY647 tracer by fluorescence cross-correlation spectroscopic analysis; assay type: cell membranes
[15] = Inhibition of Plasmodium falciparum FNT extracted from Saccharomyces cerevisiae W303-1A jen1 delta ady2 delta assessed as reduction in [1-14C]-L-lactate uptake preincubated for 20 mins followed by substrate addition by TriCrab liquid scintillation counter

half-life [4]: 2 h | concentration at 96 h [5]: ~2000 ng/mL | CLint scaled at 1 µM [9]: 462 mL/min/kg
Compound: CCCNc1ccc(C(=O)/C=C(\O)C(F)(F)C(F)(F)F)cn1
Activity (HEK293 [1]): Non-Toxic | Activity (Plasmodium falciparum [2]): Active | Activity (HepG2 [3]): Non-Toxic | Activity (HEK293 [6]): Non-Toxic | Activity (HepG2 [7]): Non-Toxic | Activity (HEK293 [8]): Non-Toxic | Activity (HepG2 [10]): Non-Toxic

pKa [11]: 10
Compound: FC(F)(F)C(F)(F)c1cc(-c2cccnc2)n[nH]1

CLint scaled at 1 µM [9]: 3.98 mL/min/kg
Compound: O=C(/C=C(\O)C(F)(F)C(F)(F)F)c1cccnc1
Activity (Plasmodium berghei): >99.7%

EC50 (Plasmodium falciparum [12]): < 100 nM | CLint scaled at 1 µM [9]: 10.6 mL/min/kg
Compound: CC(=O)Nc1ccc(C(=O)/C=C(\O)C(F)(F)C(F)(F)F)cn1
Activity (HEK293 [1]): Non-Toxic | Activity (HepG2 [3]): Non-Toxic | Activity (HEK293 [6]): Non-Toxic | Activity (HepG2 [7]): Non-Toxic | Activity (HEK293 [8]): Non-Toxic | Activity (HepG2 [10]): Non-Toxic

EC50 (Plasmodium falciparum [12]): < 100 nM
Compound: O=C(/C=C(\O)C(F)(F)C(F)(F)F)c1ccc(NCc2ccccc2)nc1

Compound: COc1ccc(C(=O)/C=C(\O)C(F)(F)C(F)(F)F)c(O)c1
inhibition at 0.05 µM (Plasmodium falciparum [13]): < 10% | Ki [14]: 83 nM | IC50 [15]: 170 nM

pKa [11]: 8
Compound: FC(F)(F)C(F)(F)c1nc(-c2cccnc2)n[nH]1
